Test results published in article PMC8533149 (Biomolecules, 2021).
Read-outs that look alike come from different tables or passages of the source.

Assays:
[1] = tested on: HIV-1 LTR-III G-quadruplex (FAM/TAMRA-labeled LTR-III); assay: FRET melting assay, LTR-III G4; type: binding; settings: for LTR-III (average): Table S12, average stabilization; for LTR III stabilization: Figure 7, stabilization group; for LTR-III ΔTm: Table S1 primary screening, ligand:ODN 50:1, singlicate
Summary of the method: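 Melting is followed by FAM fluorescence (ex 495/em 520 nm) while heating at 1 °C/min from 30 to 95 °C. Labelled ODN at 0.5 μM, pre-annealed in 10 mM Li cacodylate, 100 mM KCl, pH 7.4, mixed with ligand at 50:1 (25 μM), or 20:1 and 2:1 for titration. ΔTm is relative to the 0.25% DMSO buffer control.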

[2] = tested on: MT4 cells; assay: Cytotoxicity test; type: cell-based; settings: for СС50 (MT4): Table S12, nine days; for CC50: Figure 7
Method: (§1) Green monkey kidney (Vero, Beach, FL, USA) cell line was maintained in 2 × Eagle MEM (“Chumakov FSC R&D IBP RAS”, Russia) with 5% FBS with L-glutamine, penicillin and streptomycin. […] HIV-1 strain NL4-3 was obtained via cell transfection with pNL4-3 3 (ARP2006, NIBSC, Potters Bar, UK).
(§2) MT4 cell suspensions were added to the wells with compound dilutions and DMSO control (approx. 2 × 10^4 cells per well). […] All experimental procedures were performed in two replicates and were repeated two to four times. Mean and SD were calculated with OriginPro 8 (OriginLab, St. Louis, MO, USA).

[3] = Cytotoxicity test; type: cell-based; settings: human, Figure 7
Method: as §1, §2

[4] = tested on: HIV-1 strain NL4-3 in MT4 cells; assay: Cytopathic effect inhibition test; type: cell-based; settings: HIV-1 NL4-3, MT4 cells
Method: Human T cell leukemia (MT4) cell line was maintained in RPMI-1640 (“Chumakov FSC R&D IBP RAS”, Moscow, Russia) with 10% of fetal bovine serum (FBS, Invitrogen, Waltham, MA, USA), L-glutamine and gentamicin. Green monkey kidney (Vero, Beach, FL, USA) cell line was maintained in 2 × Eagle MEM (“Chumakov FSC R&D IBP RAS”, Russia) with 5% FBS with L-glutamine, penicillin and streptomycin. Cell cultures were incubated in the present of 5% CO2 at 37 °C. HIV-1 strain NL4-3 was obtained via cell transfection with pNL4-3 3 (ARP2006, NIBSC, Potters Bar, UK).
Eight two-fold dilutions of stock solutions of the compounds in two replicates were prepared in RPMI-1640 (“Chumakov FSC R&D IBP RAS”, Russia). Compound dilutions were mixed with equal volumes of the virus suspension containing 100 CCID50 (50% tissue culture infectious dose). Control cells were treated with the same sequential concentrations of DMSO as in compound dilutions. Then, the MT4 cell suspension (approx. 2 × 10^4 cells per well) in RPMI-1640 containing 10% FBS (Invitrogen, South America) was added to experimental mixtures. A final concentration series started from 25 μM. Each experiment contained virus dose titration in the inoculate to assure the acceptable dose-range. After a nine-day incubation (5% CO2, at 37 °C), cytopathic effect (CPE) was visually accessed via microscope. EC50 values were calculated according to the Karber method. All experimental procedures were performed in two replicates and were repeated two to four times. Mean and SD were calculated with OriginPro 8 (OriginLab, St. Louis, MO, USA).

[5] = Table S12, CPE, nine-day incubation, read-out: EC50
[6] = Figure 7, read-out: Antiviral activity EC50 (HIV)

COc1cc(/C=C2N=C(/C=C/c3cc(Br)c(O)c(Br)c3)N(CCN)C\2=O)cc(OC)c1O.Cl [AR559]
LTR-III (average) [1]: 1,2 °C | СС50 (MT4) [2]: > 25 µM | CC50 at 9 days ([3]; MT4 cells): > 25 µM

Cc1cn([C@H]2C[C@H](N=[N+]=[N-])[C@@H](CO)O2)c(=O)[nH]c1=O [AZT, reference compound]
EC50 [4, 5]: 0.0071 ± 0.00043 µM | СС50 (MT4) [2]: 8.0 ± 1.5 µM

COc1ccc(C=C2N=C(CC(C)C)C(=O)N(OC)C2=O)cc1 [M 802]
LTR III stabilization [1]: < 1 °C | LTR-III ΔTm [1]: -2.3 °C | LTR-III (average) [1]: -2,3 °C | CC50 [2]: 7 ± 3 µM | СС50 (MT4) [2]: 6.6 ± 3.1 µM

O=C1/C(=C/c2cccs2)N=C(/C=C/c2ccc(O)cc2)N1CCc1ccc(O)cc1 [MID 161]
LTR III stabilization [1]: < 1 °C | LTR-III ΔTm [1]: -2.6 °C | LTR-III (average) [1]: -1,7 °C | EC50 ([4]; Human immunodeficiency virus 1, NL43, 216 h, Table S12, CPE, nine-day incubation, read-out: EC50): 7.7 ± 2.2 µM | EC50 ([4]; Human immunodeficiency virus 1, NL43, Figure 7, read-out: Antiviral activity EC50 (HIV)): 8 ± 2 µM | СС50 (MT4) [2]: 17.3 ± 5.7 µM | CC50 at 9 days ([3]; MT4 cells (human T cell leukemia)): 17 ± 5 µM

COc1ccc(OC)c(C=C2N=C(C)N(C)C2=O)c1 [N 840]
LTR III stabilization [1]: < 1 °C | LTR-III ΔTm [1]: -2.5 °C | LTR-III (average) [1]: -1,55 °C | CC50 [2]: > 25 µM | СС50 (MT4) [2]: > 25 µM

COc1cc(C=CC2=NC(=Cc3ccc(O)cc3)C(=O)N2C)cc(OC)c1O [N 906]
LTR III stabilization [1]: < 1 °C | LTR-III ΔTm [1]: 0.1 °C | LTR-III (average) [1]: 0,1 °C | CC50 [2]: 7 ± 3 µM | СС50 (MT4) [2]: 6.6 ± 3.1 µM

COc1cc(O)ccc1C=C1N=C(C=Cc2c(F)c(F)c(F)c(F)c2F)N(C)C1=O [N 1049]
LTR-III ΔTm [1]: 1.8 °C | LTR-III (average) [1]: 1,8 °C | EC50 [4, 6]: 2 ± 1 µM | EC50 [4, 5]: 2.1 ± 1.4 µM | CC50 [2]: 5 ± 3 µM | СС50 (MT4) [2]: 5.2 ± 2.5 µM

COc1c(O)ccc(C=C2N=C(C=Cc3ccncc3)N(C)C2=O)c1O [N 1069]
LTR-III ΔTm [1]: 2.7 °C | LTR-III (average) [1]: 2,7 °C | EC50 [4, 6]: 4 ± 2 µM | EC50 [4, 5]: 4.23 ± 1.75 µM | CC50 [2]: 6 ± 2 µM | СС50 (MT4) [2]: 6.0 ± 2.0 µM

COc1cc(O)ccc1/C=C1N=C(/C=C/N(C)C)N(C)C\1=O [N 1122]
LTR-III ΔTm [1]: 2.3 °C | LTR-III (average) [1]: 2,3 °C | CC50 [2]: > 25 µM | СС50 (MT4) [2]: > 25 µM

COc1ccc(C=C2N=C(C)N(CC(N)=O)C2=O)cc1 [SA 120]
LTR III stabilization [1]: < 1 °C | LTR-III ΔTm [1]: -2.1 °C | LTR-III (average) [1]: -1,35 °C | CC50 [2]: > 25 µM | СС50 (MT4) [2]: > 25 µM

O=C(O)c1ccc(-c2ccccc2)cc1 [X 26]
LTR-III ΔTm [1]: -0.1 °C

CNC(=O)C(N)C(O)c1ccc(OCc2ccccc2)cc1 (stereo not shown) [X 27]
LTR-III ΔTm [1]: -0.1 °C

CC(=O)NC(=Cc1ccc([N+](=O)[O-])cc1)C(=O)NC1CCCCC1 [X 28]
LTR-III ΔTm [1]: -0.3 °C

CNC(=O)C(=Cc1ccc(O)c(CO)c1)NC(=O)c1ccccc1 [X 29]
LTR-III ΔTm [1]: -0.6 °C

CC1=NC(=Cc2ccccc2)C(=O)N1Cc1ccccc1 [ZS142]
LTR-III ΔTm [1]: -1.4 °C

COc1ccc(N)cc1C=C1N=C(C)N(C)C1=O [ZS 62]
LTR-III ΔTm [1]: 0 °C

CC1=NC(=Cc2ccncc2)C(=O)N1CC(=O)O [ZS 69]
LTR-III ΔTm [1]: -0.4 °C

COc1ccc(C(N)=C2N=C(C)N(C)C2=O)cc1 [ZS 99]
LTR-III ΔTm [1]: -0.2 °C

CC1=NC(=C(N)c2ccccc2)C(=O)N1C [ZS 109]
LTR-III ΔTm [1]: -0.7 °C

COc1ccc(C=C2N=C(C)N(Cc3ccccc3)C2=O)cc1 [ZS 128]
LTR-III ΔTm [1]: -0.3 °C

COc1ccc(C=C2N=C(C)N(C3CCCCC3)C2=O)cc1 [ZS 129]
LTR-III ΔTm [1]: -0.2 °C

CC1=NC(=Cc2ccc([N+](=O)[O-])cc2)C(=O)N1Cc1ccccc1 [ZS 143]
LTR-III ΔTm [1]: -0.9 °C

CC1=NC(=Cc2ccc([N+](=O)[O-])cc2)C(=O)N1C1CCCCC1 [ZS 146]
LTR-III ΔTm [1]: 0.2 °C

NC(=C1N=C2C=CC=CN2C1=O)c1ccccc1 [ZS 167]
LTR-III ΔTm [1]: -0.1 °C

CC1=NC(=Cc2ccc(O)cc2Br)C(=O)N1C [ZS 174]
LTR-III ΔTm [1]: -0.3 °C

CC1=NC(=C(N)c2ccc(Cl)cc2)C(=O)N1C [ZS 178]
LTR-III ΔTm [1]: -0.3 °C

CN(C)C=CC1=NC(=C(N)c2ccccc2)C(=O)N1C [ZS 182]
LTR-III ΔTm [1]: 0 °C

CC1=NC(=C(N)c2ccc(Br)cc2)C(=O)N1C [ZS 190]
LTR-III ΔTm [1]: -0.5 °C

COC(=O)c1ccc(C(N)=C2N=C(C)N(C)C2=O)cc1 [ZS 199]
LTR-III ΔTm [1]: -0.4 °C

NC(=C1N=C2C=CC=CN2C1=O)c1ccc(Cl)cc1 [ZS 228]
LTR-III ΔTm [1]: 0.3 °C

CN1C(=O)C(=Cc2ccc(O)cc2)N=C1C=Cc1ccccc1 [ccA 1]
LTR-III ΔTm [1]: 0.6 °C

CN1C(=O)/C(=C/c2ccc(O)cc2)N=C1/C=C/c1ccc(O)cc1 [ccA 2]
LTR-III ΔTm [1]: 0.4 °C

CN1C(=O)C(=Cc2ccc(O)cc2)N=C1C=CC=Cc1ccccc1 [ccA 4]
LTR-III ΔTm [1]: 0.8 °C

CN1C(=O)C(=Cc2ccc(O)cc2)N=C1C=Cc1ccc(Br)cc1 [ccA 7]
LTR-III ΔTm [1]: 0.8 °C

CC=CC=CC1=NC(=Cc2ccc(O)cc2)C(=O)N1C [ccA 8]
LTR-III ΔTm [1]: 0.2 °C

CN1C(=O)C(=Cc2ccc(O)cc2)N=C1C=Cc1ccncc1 [ccA 9]
LTR-III ΔTm [1]: 0.3 °C

CN1C(=O)C(=Cc2ccc(O)cc2)N=C1C=Cc1ccc(O)c(Br)c1 [ccA 10]
LTR-III ΔTm [1]: 0.7 °C

CN1C(=O)C(=Cc2ccc(O)cc2)N=C1C=Cc1ccc(O)c([N+](=O)[O-])c1 [ccA 11]
LTR-III ΔTm [1]: 0.1 °C

CN1C(=O)C(=Cc2ccc(O)cc2)N=C1C=Cc1cc(Br)c(O)c(Br)c1 [ccA 12]
LTR-III ΔTm [1]: 0.2 °C

CN1C(=O)C(=Cc2ccc(O)cc2)N=C1C=Cc1ccccc1O [ccA 15]
LTR-III ΔTm [1]: 0.5 °C

CN1C(=O)C(=Cc2ccc(O)cc2)N=C1C=Cc1ccc(C(=O)O)cc1 [ccA 16]
LTR-III ΔTm [1]: 0.8 °C

CN1C(=O)C(=Cc2ccc(O)cc2)N=C1C=Cc1ccccc1F [ccA 18]
LTR-III ΔTm [1]: 0.1 °C

CN1C(=O)C(=Cc2ccc(O)cc2)N=C1C=Cc1cccs1 [ccA 19]
LTR-III ΔTm [1]: -0.1 °C

COc1ccccc1C=CC1=NC(=Cc2ccc(O)cc2)C(=O)N1C [ccA 20]
LTR-III ΔTm [1]: 0.4 °C

CN1C(=O)C(=Cc2ccc(O)cc2)N=C1C=Cc1ccc(N(C)C)cc1 [ccA 22]
LTR-III ΔTm [1]: 0.3 °C

CNC(=O)c1cc(/C=C2N=C(/C=C/c3cccs3)N(C)C\2=O)ccc1O [ccD 1]
LTR-III ΔTm [1]: 0.7 °C

CNC(=O)c1cc(C=C2N=C(C=Cc3cc(Br)c(O)c(Br)c3)N(C)C2=O)ccc1O [ccD 2]
LTR-III ΔTm [1]: 0.2 °C

CC(=O)NCCN1C(=O)C(=Cc2ccc(O)cc2)N=C1C=Cc1ccc(O)cc1 [ccE 2]
LTR-III ΔTm [1]: -0.1 °C

COc1ccc(/C=C/C2=NC(=C\c3ccc(O)cc3)/C(=O)N2CCNC(C)=O)cc1 [ccE 4]
LTR-III ΔTm [1]: 2.8 °C | LTR-III (average) [1]: 2,8 °C | CC50 [2]: > 25 µM | СС50 (MT4) [2]: > 25 µM

COc1ccccc1C=CC1=NC(=Cc2ccc(O)cc2)C(=O)N1CCNC(C)=O [ccE 7]
LTR-III ΔTm [1]: 0.3 °C
